Measured values published in the supplement of paper PMC10307832.

Tests used:
Assay in all cases: relative viability (nuclei count vs DMSO), 5 days (fraction); higher = more cells survive
QS11 + OSI-027 = compound: C1CC2=C(C1)C=C(C=C2)OC3=NC(=C4C(=N3)N(C=N4)CC5=CC=C(C=C5)C6=CC=CC=C6)N[C@@H](CC7=CC=CC=C7)CO [QS11] + COc1cccc2cc(-c3nc([C@H]4CC[C@H](C(=O)O)CC4)n4ncnc(N)c34)[nH]c12 [OSI-027] (partner 0.5 µM)
Outline: (§1)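 Medians of duplicate plates are given as relative viability. That measure is the nuclei count in treated wells divided by the count in vehicle wells. Counts were taken on 4× images of lung cancer cell lines in 1536-well plates, 5 days after pin-tool dosing the day after seeding with one drug alone or a fixed anchor-drug dose plus five library-drug doses (not always all listed) in √10 steps.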

QS11 + Dasatinib = compound: C1CC2=C(C1)C=C(C=C2)OC3=NC(=C4C(=N3)N(C=N4)CC5=CC=C(C=C5)C6=CC=CC=C6)N[C@@H](CC7=CC=CC=C7)CO [QS11] + Cc1nc(Nc2ncc(C(=O)Nc3c(C)cccc3Cl)s2)cc(N2CCN(CCO)CC2)n1 [Dasatinib] (partner 0.075 µM)
Outline: as §1

AZ628 + Trametinib = compound: CC1=C(C=C(C=C1)NC(=O)C2=CC(=CC=C2)C(C)(C)C#N)NC3=CC4=C(C=C3)N=CN(C4=O)C [AZ628] + CC(=O)Nc1cccc(-n2c(=O)n(C3CC3)c(=O)c3c(Nc4ccc(I)cc4F)n(C)c(=O)c(C)c32)c1 [Trametinib] (partner 0.02 µM)
Outline: as §1

AZ628 + Phenformin = compound: CC1=C(C=C(C=C1)NC(=O)C2=CC(=CC=C2)C(C)(C)C#N)NC3=CC4=C(C=C3)N=CN(C4=O)C [AZ628] + N=C(N)NC(=N)NCCc1ccccc1 [Phenformin] (partner 250 µM)
Outline: as §1

Cell Line	relative viability (QS11 + OSI-027; first compound 0.08 µM)	relative viability (QS11 + OSI-027; first compound 0.253 µM)	relative viability (QS11 + OSI-027; first compound 0.8 µM)	relative viability (QS11 + OSI-027; first compound 2.53 µM)	relative viability (QS11 + OSI-027; first compound 8 µM)	relative viability (QS11 + Dasatinib; first compound 0.08 µM)	relative viability (QS11 + Dasatinib; first compound 0.253 µM)	relative viability (QS11 + Dasatinib; first compound 0.8 µM)	relative viability (QS11 + Dasatinib; first compound 2.53 µM)	relative viability (QS11 + Dasatinib; first compound 8 µM)	relative viability (AZ628 + Trametinib; first compound 0.08 µM)	relative viability (AZ628 + Trametinib; first compound 0.253 µM)	relative viability (AZ628 + Trametinib; first compound 0.8 µM)	relative viability (AZ628 + Trametinib; first compound 2.53 µM)	relative viability (AZ628 + Trametinib; first compound 8 µM)	relative viability (AZ628 + Phenformin; first compound 0.08 µM)	relative viability (AZ628 + Phenformin; first compound 0.253 µM)	relative viability (AZ628 + Phenformin; first compound 0.8 µM)	relative viability (AZ628 + Phenformin; first compound 2.53 µM)	relative viability (AZ628 + Phenformin; first compound 8 µM)
PC-14	0.731	0.98	0.809	0.807	0.695	0.223	0.201	0.289	0.26	0.15	0.441	0.301	0.205	0.178	0.195	0.638	0.438	0.498	0.599	0.416
EPLC-272H		0.287	0.253	0.259	0.26		0.394	0.35	0.257	0.333	0.26	0.207	0.222	0.189	0.17	0.419	0.37	0.363	0.302	0.2
NCI-H2228	0.534	0.424	0.538	0.74	0.597	0.415	0.521	0.55	0.725	0.677	0.34	0.316	0.263	0.129	0.12	0.25	0.274	0.252	0.218	0.206
LC-2-ad	0.783	0.413	0.873	0.847	0.79	0.535	0.537	0.614	0.693	0.79	0.731	0.669	0.529	0.601	0.427	0.606	0.562	0.556	0.49	0.532
HOP-62	0.879	0.845	0.811	0.65	0.837	0.695	0.667	0.708	0.615	0.706	0.197	0.155	0.15	0.15	0.188	0.792	0.821	0.707	0.746	0.437
UMC-11	0.474	0.481	0.501	0.492	0.57	0.473	0.5	0.494	0.583	0.681	0.713	0.764	0.734	0.691	0.693	0.322	0.268	0.339	0.294	0.255
HCC-44	0.606	0.531	0.512	0.593	0.378						0.909	0.837	0.566	0.804	0.519	0.218	0.0997	0.136	0.115	0.203
NCI-H727	0.576	0.708	0.579	0.404	0.461	0.297	0.467	0.353	0.554	0.438	0.338			0.385	0.357	0.422	0.386	0.374	0.329	0.341
A-427	0.411	0.455		0.507	0.408	0.646	0.718		0.708	0.729	0.462	0.407	0.353	0.395	0.407	0.207	0.242	0.25	0.245	0.181
SK-MES-1	0.627	0.575	0.544	0.615	0.623	0.374	0.307	0.425	0.326	0.297	0.32	0.318	0.308	0.262	0.369	0.715	0.661	0.619	0.675	0.466
NCI-H1623	0.417	0.386	0.415	0.445	0.426	0.502	0.567	0.66	0.544	0.641						0.6	0.524	0.382	0.505	0.437
HCC-827	0.845	0.855	0.754	0.862	1.01	0.244	0.26	0.386	0.305	0.328	0.352	0.348	0.3	0.342	0.316	0.445	0.421	0.434	0.374	0.335
EKVX	0.644	0.635		0.596	0.693	0.529	0.503	0.512	0.505	0.589	0.368	0.227	0.248	0.273	0.195	0.241	0.222	0.187	0.232	0.211
SW 900	0.547	0.601	0.661	0.487	0.423	0.629	0.529	0.428	0.417	0.521	0.506	0.663	0.568	0.555	0.309	0.536	0.691	0.561	0.422	0.399
NCI-H661	0.696	0.75	0.69	0.618	0.549	0.794	0.804	0.891	0.798	0.711	0.509	0.426	0.413	0.377	0.535	0.283	0.266	0.278	0.292	0.275
NCI-H1975	0.737	0.674	0.741	0.659	0.805	0.357	0.31	0.423	0.512	0.455	0.331	0.272	0.228	0.259	0.288	0.421	0.388	0.403	0.384	0.215
NCI-H1944	0.41	0.387		0.378	0.314	0.197	0.214		0.226	0.272	0.321	0.305	0.254	0.295	0.33	0.188	0.181	0.184	0.177	0.187
SK-LU-1	0.321	0.327	0.326	0.254	0.291	0.175	0.158	0.172	0.167	0.169	0.325	0.323	0.257	0.248	0.248		0.433	0.488	0.348	0.253
NCI-H1755	0.685	0.725	0.592	0.604	0.486	0.449	0.39	0.38	0.391	0.314	0.63	0.604	0.483	0.561	0.305	0.614	0.626	0.585	0.589	0.46
NCI-H650	0.513	0.513	0.548	0.483	0.456	0.424	0.428	0.497	0.4	0.352	0.568	0.393	0.357	0.365	0.282	0.536	0.471	0.552	0.509	0.498
SW 1573	0.583	0.655	0.734	0.465	0.278	0.537	0.635	0.545	0.393	0.329	0.443	0.346	0.334	0.3	0.329	0.322	0.308	0.215	0.288	0.2
NCI-H322M	0.549	0.607	0.636	0.687	0.732	0.264	0.261	0.27	0.292	0.318	0.473	0.511	0.489	0.536	0.617	0.783	0.737	0.725	0.769	0.663
ABC-1	0.477	0.348	0.519	0.492	0.457	0.577	0.436		0.605	0.571						0.274	0.188	0.205	0.211	0.235
NCI-H1993	0.582	0.674	0.547	0.538	0.5	0.558	0.508	0.618	0.684	0.528	0.456	0.516	0.479	0.535	0.667	0.46	0.562	0.545	0.523	0.537
NCI-H1355	0.392	0.324	0.334	0.35	0.334	0.702	0.526	0.673	0.817	0.794	0.384	0.303	0.28	0.292	0.286	0.502	0.444	0.431	0.411	0.39
PC-3 [JPC-3]	0.794	0.743	0.371	0.718	0.739	0.992	1.05	0.954	1.13	1.08	0.685	0.579	0.647	0.574	0.386	0.441	0.477	0.485	0.464	0.383
NCI-H1563	0.67	0.775	0.741	0.745	0.693	0.448	0.417	0.44	0.409	0.426						0.694	0.661	0.672	0.654	0.679
NCI-H1648		0.26		0.275	0.247						0.404	0.333	0.288	0.337	0.284					
A549																0.19	0.161	0.136	0.135	0.141
